Experimental data reported in patent publication US9365619B2, “IgG-binding peptide and method for detecting and purifying IgG using same” (Otsuka Chemical Co., Ltd., priority 2011, dated 2016).
pKd: −log10 of the molar value. Where two headings read alike, the source gives them in different places. Bridge positions count the residues as written; N and C are the ends. Peptide text beside a SMILES is read from it.

Target: human IgG
Assay: Surface plasmon resonance (SPR) analysis of synthetic peptide binding to human IgG
Conditions: for affinity compared with the original peptide, in words: compared with GFc-C35-3/15
Protocol: In order to narrow down the amino acid region to be studied, a peptide in which one amino acid was deleted from each end of GFc-C35 (GFc-C35-2/16) and a peptide in which two amino acids were deleted from each end of CFc-C35 (GFc-C35-3/15) were synthesized. Among these peptides, based on the GFc-C35-3/15 synthetic peptide, the effect of the introduction of amino acid mutations on affinity was evaluated. That is, the contribution of each amino acid substitution to affinity was evaluated by synthesizing peptides substituted with frequently or occasionally observed amino acids obtained from the phage libraries and subjecting the resulting synthetic peptides to binding analysis.
Based on the synthetic peptide C35A, peptides substituted with amino acids observed at high frequency in the aforementioned phage libraries were synthesized by introducing amino acid mutations, and in a similar manner to the above, their binding to human IgG was analyzed by surface plasmon resonance (SPR) analysis to evaluate the contribution of each amino acid substitution to affinity.

[1] = SPR, synthetic peptide binding to human IgG, read-out: Kd
[2] = SPR sensorgram analysis, human IgG, read-out: affinity (Kd value)
[3] = SPR sensorgram analysis, human IgG

| Compound | pKd [1] | other results |
| --- | --- | --- |
| CC(C)C[C@@H]1NC(=O)[C@H](CCC(=O)O)NC(=O)CNC(=O)[C@H](CCCNC(=N)N)NC(=O)[C@H](Cc2c[nH]cn2)NC(=O)[C@H](Cc2ccc(O)cc2)NC(=O)[C@H](C)NC(=O)[C@@H](NC(=O)[C@H](CC(=O)O)NC(=O)[C@@H]2CCCN2C(=O)CN)CSSC[C@@H](C(=O)N[C@@H](CO)C(=O)N[C@@H](Cc2ccccc2)C(=O)N[C@@H](Cc2c[nH]cn2)C(N)=O)NC(=O)[C@H](Cc2c[nH]c3ccccc23)NC(=O)[C@H](C(C)C)NC1=O [C35A (T15S), GPDCAYHRGELVWCSFH] (H-GPDCAYHRGELVWCSFH-NH2; disulfide 4-14) | 7.84 | – |
| CC(C)C[C@@H]1NC(=O)[C@H](CCC(=O)O)NC(=O)CNC(=O)[C@H](CCCNC(=N)N)NC(=O)[C@H](Cc2c[nH]cn2)NC(=O)[C@H](Cc2ccc(O)cc2)NC(=O)[C@H](C)NC(=O)[C@@H](NC(=O)[C@@H](N)CCCNC(=N)N)CSSC[C@@H](C(=O)N[C@@H](CO)C(N)=O)NC(=O)[C@H](Cc2c[nH]c3ccccc23)NC(=O)[C@H](C(C)C)NC1=O [RCAYHRGELVWCS] (H-RCAYHRGELVWCS-NH2; disulfide 2-12) | – | pKd [2]: 6.83 |
| CC(C)C[C@@H]1NC(=O)[C@H](CCC(=O)O)NC(=O)CNC(=O)[C@H](CCCNC(=N)N)NC(=O)[C@H](Cc2c[nH]cn2)NC(=O)[C@H](Cc2ccc(O)cc2)NC(=O)[C@H](C)NC(=O)[C@@H](NC(=O)[C@H](CC(=O)O)NC(=O)[C@@H]2CCCN2C(=O)[C@@H](N)CO)CSSC[C@@H](C(=O)N[C@H](C(=O)N[C@@H](Cc2ccccc2)C(=O)N[C@@H](Cc2ccc(O)cc2)C(N)=O)[C@@H](C)O)NC(=O)[C@H](Cc2c[nH]c3ccccc23)NC(=O)[C@H](C(C)C)NC1=O [C35A (G1S, H17Y), SPDCAYHRGELVWCTFY] (H-SPDCAYHRGELVWCTFY-NH2; disulfide 4-14) | 7.96 | – |
| CC(C)C[C@@H]1NC(=O)[C@H](CCC(=O)O)NC(=O)CNC(=O)[C@H](CCCNC(=N)N)NC(=O)[C@H](Cc2c[nH]cn2)NC(=O)[C@H](Cc2ccc(O)cc2)NC(=O)[C@H](C)NC(=O)[C@@H](NC(=O)[C@H](CC(=O)O)NC(=O)[C@H](CC(=O)O)NC(=O)[C@@H](N)CO)CSSC[C@@H](C(=O)N[C@H](C(=O)N[C@@H](Cc2ccccc2)C(=O)N[C@@H](Cc2ccc(O)cc2)C(N)=O)[C@@H](C)O)NC(=O)[C@H](Cc2c[nH]c3ccccc23)NC(=O)[C@H](C(C)C)NC1=O [C35A (P2D, H17Y), SDDCAYHRGELVWCTFY] (H-SDDCAYHRGELVWCTFY-NH2; disulfide 4-14) | 7.89 | – |
| CC(C)C[C@@H]1NC(=O)[C@H](CCC(=O)O)NC(=O)CNC(=O)[C@H](CCCNC(=N)N)NC(=O)[C@H](Cc2c[nH]cn2)NC(=O)[C@H](Cc2ccc(O)cc2)NC(=O)[C@H](C)NC(=O)[C@@H](NC(=O)[C@H](CC(=O)O)NC(=O)[C@@H]2CCCN2C(=O)CN)CSSC[C@@H](C(=O)N[C@H](C(=O)N[C@@H](Cc2ccccc2)C(=O)N[C@@H](Cc2c[nH]cn2)C(N)=O)[C@@H](C)O)NC(=O)[C@H](Cc2c[nH]c3ccccc23)NC(=O)[C@H](C(C)C)NC1=O [Peptide C35A, GPDCAYHRGELVWCTFH] (H-GPDCAYHRGELVWCTFH-NH2; disulfide 4-14) | 8.05 | – |
| CC(C)C[C@@H]1NC(=O)[C@H](CCC(=O)O)NC(=O)CNC(=O)[C@H](CCCNC(=N)N)NC(=O)[C@H](Cc2c[nH]cn2)NC(=O)[C@H](Cc2ccc(O)cc2)NC(=O)[C@H](C)NC(=O)[C@@H](NC(=O)[C@@H](N)CC(=O)O)CSSC[C@@H](C(=O)N[C@H](C(N)=O)[C@@H](C)O)NC(=O)[C@H](Cc2c[nH]c3ccccc23)NC(=O)[C@H](C(C)C)NC1=O [GFc-C35-3/15 (T5A, T7H, N8R, N10E), DCAYHRGELVWCT] (H-DCAYHRGELVWCT-NH2; disulfide 2-12) | – | association rate constant ka [3]: 4.6×10^5 M^−1S^−1; dissociation rate constant kd [3]: 2.5×10^−2 S^−1; pKd [2]: 7.27; fold increase in affinity (fold decrease in Kd value) (relative to original peptide GFc-C35-3/15): approximately 2400 fold |
| CC(C)C[C@@H]1NC(=O)[C@H](CCC(=O)O)NC(=O)CNC(=O)[C@H](CCCNC(=N)N)NC(=O)[C@H](Cc2c[nH]cn2)NC(=O)[C@H](Cc2c[nH]c3ccccc23)NC(=O)[C@H](C)NC(=O)[C@@H](NC(=O)[C@@H](N)CC(=O)O)CSSC[C@@H](C(=O)N[C@H](C(N)=O)[C@@H](C)O)NC(=O)[C@H](Cc2c[nH]c3ccccc23)NC(=O)[C@H](C(C)C)NC1=O [GFc-C35-3/15 (T5A, Y6W, T7H, N8R, N10E), DCAWHRGELVWCT] | 6.59 | association rate constant ka [3]: 5.4×10^4 M^−1S^−1; dissociation rate constant kd [3]: 1.4×10^−2 S^−1; pKd [2]: 6.59; association rate constant ka relative to GFc-C35-3/15 (T5A, T7H, N8R, N10E) (SPR, human IgG): ⅛ |

Further lines, with some results ahead:

| pKd [1] | Compound | other results |
| --- | --- | --- |
| 3.89 | CC(C)C[C@@H]1NC(=O)[C@H](CC(N)=O)NC(=O)CNC(=O)[C@H](CC(N)=O)NC(=O)[C@H]([C@@H](C)O)NC(=O)[C@H](Cc2ccc(O)cc2)NC(=O)[C@H]([C@@H](C)O)NC(=O)[C@@H](NC(=O)[C@@H](N)CC(=O)O)CSSC[C@@H](C(=O)N[C@H](C(N)=O)[C@@H](C)O)NC(=O)[C@H](Cc2c[nH]c3ccccc23)NC(=O)[C@H](C(C)C)NC1=O [GFc-C35-3/15, DCTYTNGNLVWCT] (H-DCTYTNGNLVWCT-NH2; disulfide 2-12) | – |
| 5.32 | CC[C@H](C)[C@@H]1NC(=O)[C@H](CC(C)C)NC(=O)[C@H](CC(N)=O)NC(=O)CNC(=O)[C@H](CCCNC(=N)N)NC(=O)[C@H](Cc2c[nH]cn2)NC(=O)[C@H](Cc2ccc(O)cc2)NC(=O)[C@H]([C@@H](C)O)NC(=O)[C@@H](NC(=O)[C@@H](N)CC(=O)O)CSSC[C@@H](C(=O)N[C@H](C(N)=O)[C@@H](C)O)NC(=O)[C@H](Cc2c[nH]c3ccccc23)NC1=O [GFc-C35-3/15 (T7H, N8R, V12I), DCTYHRGNLIWCT] (H-DCTYHRGNLIWCT-NH2; disulfide 2-12) | affinity compared with the parent peptide, in words (compared with GFc-C35-3/15 (T7H, N8R)): reduced affinity |
| 2.68 | CC(C)C[C@@H]1NC(=O)[C@H](CC(N)=O)NC(=O)CNC(=O)[C@H](CC(N)=O)NC(=O)[C@H]([C@@H](C)O)NC(=O)[C@H](Cc2ccccc2)NC(=O)[C@H]([C@@H](C)O)NC(=O)[C@@H](NC(=O)[C@@H](N)CC(=O)O)CSSC[C@@H](C(=O)N[C@H](C(N)=O)[C@@H](C)O)NC(=O)[C@H](Cc2c[nH]c3ccccc23)NC(=O)[C@H](C(C)C)NC1=O [GFc-C35-3/15 (Y6F), DCTFTNGNLVWCT] (H-DCTFTNGNLVWCT-NH2; disulfide 2-12) | affinity compared with the original peptide, in words: greatly reduced affinity |
| 4.60 | CC(C)C[C@@H]1NC(=O)[C@H](CC(N)=O)NC(=O)CNC(=O)[C@H](CC(N)=O)NC(=O)[C@H]([C@@H](C)O)NC(=O)[C@H](Cc2ccc(O)cc2)NC(=O)[C@H]([C@@H](C)O)NC(=O)[C@@H](NC(=O)[C@H](CC(=O)O)NC(=O)[C@@H]2CCCN2)CSSC[C@@H](C(=O)N[C@H](C(=O)N[C@@H](Cc2ccccc2)C(N)=O)[C@@H](C)O)NC(=O)[C@H](Cc2c[nH]c3ccccc23)NC(=O)[C@H](C(C)C)NC1=O [GFc-C35-2/16, PDCTYTNGNLVWCTF] (H-PDCTYTNGNLVWCTF-NH2; disulfide 3-13) | – |
| 5.96 | CC(C)C[C@@H]1NC(=O)[C@H](CC(N)=O)NC(=O)CNC(=O)[C@H](CCCNC(=N)N)NC(=O)[C@H](Cc2c[nH]cn2)NC(=O)[C@H](Cc2ccc(O)cc2)NC(=O)[C@H]([C@@H](C)O)NC(=O)[C@@H](NC(=O)[C@@H](N)CC(=O)O)CSSC[C@@H](C(=O)N[C@H](C(N)=O)[C@@H](C)O)NC(=O)[C@H](Cc2c[nH]c3ccccc23)NC(=O)[C@H](C(C)C)NC1=O [GFc-C35-3/15 (T7H, N8R), DCTYHRGNLVWCT] (H-DCTYHRGNLVWCT-NH2; disulfide 2-12) | – |
| 3.92 | CC(C)C[C@@H]1NC(=O)[C@H](CC(N)=O)NC(=O)CNC(=O)[C@H](CC(N)=O)NC(=O)[C@H]([C@@H](C)O)NC(=O)[C@H](Cc2ccc(O)cc2)NC(=O)[C@H](CO)NC(=O)[C@@H](NC(=O)[C@@H](N)CC(=O)O)CSSC[C@@H](C(=O)N[C@H](C(N)=O)[C@@H](C)O)NC(=O)[C@H](Cc2c[nH]c3ccccc23)NC(=O)[C@H](C(C)C)NC1=O [GFc-C35-3/15 (T5S), DCSYTNGNLVWCT] (H-DCSYTNGNLVWCT-NH2; disulfide 2-12) | – |
| 3.55 | CSCC[C@@H]1NC(=O)[C@H](CC(N)=O)NC(=O)CNC(=O)[C@H](CC(N)=O)NC(=O)[C@H]([C@@H](C)O)NC(=O)[C@H](Cc2ccc(O)cc2)NC(=O)[C@H]([C@@H](C)O)NC(=O)[C@@H](NC(=O)[C@@H](N)CC(=O)O)CSSC[C@@H](C(=O)N[C@H](C(N)=O)[C@@H](C)O)NC(=O)[C@H](Cc2c[nH]c3ccccc23)NC(=O)[C@H](C(C)C)NC1=O [GFc-C35-3/15 (L11M), DCTYTNGNMVWCT] (H-DCTYTNGNMVWCT-NH2; disulfide 2-12) | affinity compared with the original peptide, in words: a decrease in affinity |
| 4.08 | CC(C)C[C@@H]1NC(=O)[C@H](CC(N)=O)NC(=O)CNC(=O)[C@H](CC(N)=O)NC(=O)[C@H](CCCNC(=N)N)NC(=O)[C@H](Cc2ccc(O)cc2)NC(=O)[C@H]([C@@H](C)O)NC(=O)[C@@H](NC(=O)[C@@H](N)CC(=O)O)CSSC[C@@H](C(=O)N[C@H](C(N)=O)[C@@H](C)O)NC(=O)[C@H](Cc2c[nH]c3ccccc23)NC(=O)[C@H](C(C)C)NC1=O [GFc-C35-3/15 (T7R), DCTYRNGNLVWCT] (H-DCTYRNGNLVWCT-NH2; disulfide 2-12) | – |
